From PubChem BioAssay AID248 (DTP/NCI, 2004)
“And” between values parts separate entries of the source, which are not always exact repeats. Identical values can stand only once. Inconclusive results and toxic doses are left out. Square brackets hold non-standard residues; d marks the D form. Peptide text beside a SMILES is read from it. * marks the point of attachment. ξ: configuration not given here. Cbz = O=C(OCc1ccccc1)*; OBn = c1ccc(CO*)cc1; ξP = O=C(O)C1CCCN1

Test system: L1210 leukemia ip in BDF1 mice, survival T/C
Experiment: NCI In Vivo Anticancer Drug Screen. Data for tumor model L1210 Leukemia (intraperitoneal) in B6D2F1 (BDF1) mice
Settings: higher = longer survival
Procedure, shortened: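 In this screen, tumor-bearing mice given compound are compared to those given vehicle, and their survival values are reported as a treated-to-control quotient.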

[1] = endpoint: mean survival time, dose: 100.0 mg/kg/injection, schedule: Q01DX001 (ip), vehicle: carboxymethylcellulose (CMC)
[2] = endpoint: mean survival time, dose: 200.0 mg/kg/injection, schedule: Q01DX001 (ip), vehicle: carboxymethylcellulose (CMC)
[3] = endpoint: mean survival time, dose: 400.0 mg/kg/injection, schedule: Q01DX001 (ip), vehicle: carboxymethylcellulose (CMC)
[4] = endpoint: mean survival time, dose: 100.0 mg/kg/injection, schedule: Q04DX003 (ip), vehicle: Klucel (hydroxypropylcellulose) (HPC)
[5] = endpoint: mean survival time, dose: 200.0 mg/kg/injection, schedule: Q04DX003 (ip), vehicle: Klucel (hydroxypropylcellulose) (HPC)
[6] = endpoint: mean survival time, dose: 400.0 mg/kg/injection, schedule: Q04DX003 (ip), vehicle: Klucel (hydroxypropylcellulose) (HPC)
[7] = endpoint: mean survival time, dose: 100.0 mg/kg/injection, schedule: Q04DX003 (ip), vehicle: saline with Tween-80
[8] = endpoint: mean survival time, dose: 200.0 mg/kg/injection, schedule: Q04DX003 (ip), vehicle: saline with Tween-80
[9] = endpoint: mean survival time, dose: 400.0 mg/kg/injection, schedule: Q04DX003 (ip), vehicle: saline with Tween-80
[10] = endpoint: mean survival time, dose: 100.0 mg/kg/injection, schedule: Q01DX001 (ip), vehicle: Klucel (hydroxypropylcellulose) (HPC)
[11] = endpoint: mean survival time, dose: 200.0 mg/kg/injection, schedule: Q01DX001 (ip), vehicle: Klucel (hydroxypropylcellulose) (HPC)
[12] = endpoint: mean survival time, dose: 400.0 mg/kg/injection, schedule: Q01DX001 (ip), vehicle: Klucel (hydroxypropylcellulose) (HPC)
[13] = endpoint: mean survival time, dose: 25.0 mg/kg/injection, schedule: Q01DX009 (ip), vehicle: saline
[14] = endpoint: mean survival time, dose: 50.0 mg/kg/injection, schedule: Q01DX009 (ip), vehicle: saline
[15] = endpoint: mean survival time, dose: 100.0 mg/kg/injection, schedule: Q04DX003 (ip), vehicle: saline
[16] = endpoint: mean survival time, dose: 200.0 mg/kg/injection, schedule: Q04DX003 (ip), vehicle: saline
[17] = endpoint: mean survival time, dose: 400.0 mg/kg/injection, schedule: Q04DX003 (ip), vehicle: saline

CCCCCCCCCCCCCCCC(CCCC)C1CCCCC1 (stereo unspecified)
T/C (endpoint: mean survival time, dose: 100.0 mg/kg/injection, schedule: Q01DX001 (ip), vehicle: saline + alcohol): 100 % of control
T/C (endpoint: mean survival time, dose: 200.0 mg/kg/injection, schedule: Q01DX001 (ip), vehicle: saline + alcohol): 98 % of control
T/C (endpoint: mean survival time, dose: 400.0 mg/kg/injection, schedule: Q01DX001 (ip), vehicle: saline + alcohol): 96 % of control

O=C1C=CC(=O)N1c1ccnc(N2C(=O)C=CC2=O)c1
T/C [1]: 86 % of control
T/C [2]: 97 % of control
T/C [3]: 105 % of control

CC(=O)Nc1nc(NC(C)=O)c2nc(CCN(C)c3ccc(C(=O)O)cc3)cnc2n1
T/C (endpoint: mean survival time, dose: 75.0 mg/kg/injection, schedule: Q01DX001 (ip), vehicle: saline): 106 % of control
T/C [4]: 95 % of control
T/C (endpoint: mean survival time, dose: 150.0 mg/kg/injection, schedule: Q01DX001 (ip), vehicle: saline): 101 % of control
T/C [5]: 95 % of control
T/C (endpoint: mean survival time, dose: 300.0 mg/kg/injection, schedule: Q01DX001 (ip), vehicle: saline): 101 % of control
T/C [6]: 100 % of control

CC[C@@H](c1ccc(O)cc1)[C@@H](CC)c1ccc(O)cc1
T/C (endpoint: mean survival time, dose: 25.0 mg/kg/injection, schedule: Q01DX009 (sc), vehicle: steriod suspending solution): 100 % of control and 108 % of control
T/C (endpoint: mean survival time, dose: 25.0 mg/kg/injection, schedule: Q01DX010 (sc), vehicle: steriod suspending solution): 101 % of control
T/C (endpoint: mean survival time, dose: 50.0 mg/kg/injection, schedule: Q01DX009 (sc), vehicle: steriod suspending solution): 96 % of control and 100 % of control
T/C (endpoint: mean survival time, dose: 50.0 mg/kg/injection, schedule: Q01DX010 (sc), vehicle: steriod suspending solution): 95 % of control
T/C (endpoint: mean survival time, dose: 100.0 mg/kg/injection, schedule: Q01DX009 (sc), vehicle: steriod suspending solution): 96 % of control and 102 % of control
T/C (endpoint: mean survival time, dose: 100.0 mg/kg/injection, schedule: Q01DX010 (sc), vehicle: steriod suspending solution): 98 % of control
T/C (endpoint: mean survival time, dose: 125.0 mg/kg/injection, schedule: Q01DX Z (ip), vehicle: carboxymethylcellulose (CMC)): 91 % of control
T/C (endpoint: mean survival time, dose: 200.0 mg/kg/injection, schedule: Q01DX009 (sc), vehicle: steriod suspending solution): 93 % of control and 99 % of control
T/C (endpoint: mean survival time, dose: 200.0 mg/kg/injection, schedule: Q01DX010 (sc), vehicle: steriod suspending solution): 95 % of control
T/C (endpoint: median survival time, dose: 25.0 mg/kg/injection, schedule: Q01DX009 (sc), vehicle: steriod suspending solution): 100 % of control
T/C (endpoint: median survival time, dose: 50.0 mg/kg/injection, schedule: Q01DX009 (sc), vehicle: steriod suspending solution): 100 % of control and 111 % of control
T/C (endpoint: median survival time, dose: 100.0 mg/kg/injection, schedule: Q01DX009 (sc), vehicle: steriod suspending solution): 100 % of control and 111 % of control
T/C (endpoint: median survival time, dose: 200.0 mg/kg/injection, schedule: Q01DX009 (sc), vehicle: steriod suspending solution): 100 % of control

COc1ccccc1SC(=O)N(C)C
T/C (endpoint: mean survival time, dose: 100.0 mg/kg/injection, schedule: Q01DX009 (ip), vehicle: saline with Tween-80): 102 % of control
T/C [7]: 105 % of control
T/C (endpoint: mean survival time, dose: 200.0 mg/kg/injection, schedule: Q01DX009 (ip), vehicle: saline with Tween-80): 98 % of control
T/C [8]: 96 % of control
T/C (endpoint: mean survival time, dose: 400.0 mg/kg/injection, schedule: Q01DX009 (ip), vehicle: saline with Tween-80): 93 % of control
T/C [9]: 113 % of control

CC(=O)OC1CCC(OC(C)=O)C(C#N)(C#N)C1(C#N)C#N (stereo unspecified)
T/C [7]: 104 % of control
T/C [8]: 93 % of control

Nc1nc(SCc2ccccc2)c(N)c(=S)[nH]1
T/C [10]: 95 % of control
T/C [11]: 90 % of control
T/C [12]: 93 % of control

C/C(=C\CN1C(=O)c2ccccc2C1=O)CCC(=O)O
T/C [13]: 109 % of control
T/C [14]: 101 % of control
T/C (endpoint: mean survival time, dose: 100.0 mg/kg/injection, schedule: Q01DX009 (ip), vehicle: saline): 109 % of control
T/C (endpoint: mean survival time, dose: 200.0 mg/kg/injection, schedule: Q01DX009 (ip), vehicle: saline): 111 % of control
T/C (endpoint: mean survival time, dose: 400.0 mg/kg/injection, schedule: Q01DX009 (ip), vehicle: saline): 106 % of control

C=CCNC(=S)Nc1cccc([N+](=O)[O-])c1
T/C (endpoint: mean survival time, dose: 50.0 mg/kg/injection, schedule: Q01DX001 (ip), vehicle: carboxymethylcellulose (CMC)): 111 % of control
T/C [1]: 94 % of control
T/C [2]: 94 % of control
T/C [3]: 100 % of control

CN(C)CCCn1c2c(c3ccccc31)CCCCCC2
T/C (endpoint: mean survival time, dose: 6.25 mg/kg/injection, schedule: Q01DX009 (ip), vehicle: saline): 96 % of control
T/C (endpoint: mean survival time, dose: 12.5 mg/kg/injection, schedule: Q01DX009 (ip), vehicle: saline): 93 % of control
T/C [13]: 98 % of control
T/C [14]: 102 % of control

CCC(=O)OC1(c2ccccc2)CCN(CCC(O)c2ccco2)CC1 (stereo unspecified)
T/C (endpoint: mean survival time, dose: 40.0 mg/kg/injection, schedule: Q01DX009 (ip), vehicle: Klucel (hydroxypropylcellulose) (HPC)): 97 % of control
T/C (endpoint: mean survival time, dose: 80.0 mg/kg/injection, schedule: Q01DX009 (ip), vehicle: Klucel (hydroxypropylcellulose) (HPC)): 98 % of control
T/C (endpoint: mean survival time, dose: 160.0 mg/kg/injection, schedule: Q01DX009 (ip), vehicle: Klucel (hydroxypropylcellulose) (HPC)): 98 % of control

COc1ccc(OC(=S)N(C)C)cc1
T/C [7]: 94 % of control
T/C [8]: 88 % of control
T/C [9]: 102 % of control

CCCN(CCC)c1ccc(/C=C\c2ccncc2)cc1
T/C [10]: 98 % of control
T/C [11]: 103 % of control
T/C [12]: 98 % of control

Cc1nc(SCc2ccc(Cl)cc2)[nH]c(=O)c1CC(C)O (stereo unspecified)
T/C [15]: 97 % of control
T/C [16]: 89 % of control
T/C [17]: 89 % of control

O=C(O)c1ccccc1-c1ccccc1C(=O)Nc1ccc2c(c1)C(=O)c1ccccc1-2
T/C [7]: 104 % of control
T/C [8]: 101 % of control
T/C [9]: 98 % of control

c1ccc2c[n+](CC[n+]3ccc4ccccc4c3)ccc2c1
T/C (endpoint: mean survival time, dose: 75.0 mg/kg/injection, schedule: Q04DX003 (ip), vehicle: saline): 98 % of control

CNS(=O)(=O)c1ccccc1C(=N)c1ccccc1
T/C (endpoint: mean survival time, dose: 100.0 mg/kg/injection, schedule: Q01DX001 (ip), vehicle: saline): 97 % of control
T/C (endpoint: mean survival time, dose: 200.0 mg/kg/injection, schedule: Q01DX001 (ip), vehicle: saline): 97 % of control
T/C (endpoint: mean survival time, dose: 400.0 mg/kg/injection, schedule: Q01DX001 (ip), vehicle: saline): 100 % of control

O=C(O)Cc1ccc2ccccc2c1Br
T/C [15]: 97 % of control
T/C [16]: 95 % of control
T/C [17]: 90 % of control

CC(=O)NC1C(CO)OC(n2cnc3c(N)nc(Cl)nc32)C1O (stereo unspecified)
T/C [10]: 94 % of control
T/C (endpoint: mean survival time, dose: 100.0 mg/kg/injection, schedule: Q01DX001 (ip), vehicle: saline with Tween-80): 105 % of control
T/C [11]: 96 % of control
T/C (endpoint: mean survival time, dose: 200.0 mg/kg/injection, schedule: Q01DX001 (ip), vehicle: saline with Tween-80): 107 % of control
T/C [12]: 91 % of control
T/C (endpoint: mean survival time, dose: 400.0 mg/kg/injection, schedule: Q01DX001 (ip), vehicle: saline with Tween-80): 100 % of control

CSc1cccc(NC(=O)/C=C/C(=O)O)c1
T/C (endpoint: mean survival time, dose: 75.0 mg/kg/injection, schedule: Q01DX009 (ip), vehicle: Klucel (hydroxypropylcellulose) (HPC)): 98 % of control
T/C (endpoint: mean survival time, dose: 150.0 mg/kg/injection, schedule: Q01DX009 (ip), vehicle: Klucel (hydroxypropylcellulose) (HPC)): 93 % of control
T/C (endpoint: mean survival time, dose: 300.0 mg/kg/injection, schedule: Q01DX009 (ip), vehicle: Klucel (hydroxypropylcellulose) (HPC)): 93 % of control

Cc1ccc2c(c1)C(=O)CCS2
T/C (endpoint: mean survival time, dose: 100.0 mg/kg/injection, schedule: Q01DX009 (ip), vehicle: Klucel (hydroxypropylcellulose) (HPC)): 107 % of control
T/C (endpoint: mean survival time, dose: 200.0 mg/kg/injection, schedule: Q01DX009 (ip), vehicle: Klucel (hydroxypropylcellulose) (HPC)): 100 % of control
T/C (endpoint: mean survival time, dose: 400.0 mg/kg/injection, schedule: Q01DX009 (ip), vehicle: Klucel (hydroxypropylcellulose) (HPC)): 102 % of control

Cc1cc(NC(=O)Nc2cccc(C3=NCCN3)c2)ccc1NC(=O)Nc1cccc(C2=NCCN2)c1
T/C (endpoint: mean survival time, dose: 15.0 mg/kg/injection, schedule: Q01DX Z (ip), vehicle: saline): 93 % of control
T/C (endpoint: mean survival time, dose: 30.0 mg/kg/injection, schedule: Q01DX Z (ip), vehicle: saline): 103 % of control
T/C (endpoint: mean survival time, dose: 60.0 mg/kg/injection, schedule: Q01DX Z (ip), vehicle: saline): 109 % of control
T/C (endpoint: mean survival time, dose: 240.0 mg/kg/injection, schedule: Q01DX Z (ip), vehicle: saline): 171 % of control
T/C (endpoint: mean survival time, dose: 480.0 mg/kg/injection, schedule: Q01DX Z (ip), vehicle: saline): 192 % of control

O=C(NCC(=O)N1CCCC1C(=O)OCc1ccccc1)OCc1ccccc1 (stereo not drawn) (Cbz-Gly-[ξP]-OBn)
T/C [4]: 106 % of control
T/C [5]: 106 % of control
T/C [6]: 102 % of control
